Test results as given in publication PMC9080233, “Synthesis and biological evaluation of novel quinolone derivatives dual targeting histone deacetylase and tubulin polymerization as antiproliferative agents” (RSC Advances, 2018).
Where two headings read alike, the source gives them in different places.

Experiments:
human recombinant HDAC1 = molecular target: T1, human recombinant HDAC1 (Homo sapiens, UniProt Q13547); experiment: HDAC activity assay (fluorogenic HDAC assay kit), HDAC1; assay type: biochemical; conditions: for IC50: human recombinant HDAC1, 37 °C, 30 min
T1 construct: purchased BPS Bioscience, CA
T1 sequence (Q13547 whole entry): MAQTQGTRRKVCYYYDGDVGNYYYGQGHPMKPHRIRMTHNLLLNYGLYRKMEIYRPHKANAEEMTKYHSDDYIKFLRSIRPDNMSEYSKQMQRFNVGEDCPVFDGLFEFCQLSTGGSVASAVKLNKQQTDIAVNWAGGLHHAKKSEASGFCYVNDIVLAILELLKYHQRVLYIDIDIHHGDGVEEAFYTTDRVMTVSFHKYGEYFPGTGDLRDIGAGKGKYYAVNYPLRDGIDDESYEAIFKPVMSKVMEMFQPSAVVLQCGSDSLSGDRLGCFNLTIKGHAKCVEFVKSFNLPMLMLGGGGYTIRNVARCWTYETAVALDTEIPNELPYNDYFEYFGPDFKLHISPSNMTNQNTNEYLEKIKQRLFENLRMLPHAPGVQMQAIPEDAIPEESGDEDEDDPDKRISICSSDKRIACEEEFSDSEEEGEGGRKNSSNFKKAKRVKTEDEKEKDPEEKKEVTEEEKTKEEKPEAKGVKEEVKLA
Description: (§1) HDAC activity was measured using fluorogenic HDACs assay kit (BPS Bioscience, CA) according to the manufacturer's protocol. […] Fluorescence values were measured at an excitation of 350 nm and an emission of 440 nm using SpectraMax M2 microplate reader. IC50 values were calculated using Origin software. IC50 values were determined using nonlinear regression analysis.

human recombinant HDAC2 = molecular target: T2, human recombinant HDAC2 (Homo sapiens, UniProt Q92769); experiment: HDAC activity assay (fluorogenic HDAC assay kit), HDAC2; assay type: biochemical; conditions: for IC50: human recombinant HDAC2, 37 °C, 30 min
T2 construct: purchased BPS Bioscience, CA
T2 sequence (Q92769 whole entry): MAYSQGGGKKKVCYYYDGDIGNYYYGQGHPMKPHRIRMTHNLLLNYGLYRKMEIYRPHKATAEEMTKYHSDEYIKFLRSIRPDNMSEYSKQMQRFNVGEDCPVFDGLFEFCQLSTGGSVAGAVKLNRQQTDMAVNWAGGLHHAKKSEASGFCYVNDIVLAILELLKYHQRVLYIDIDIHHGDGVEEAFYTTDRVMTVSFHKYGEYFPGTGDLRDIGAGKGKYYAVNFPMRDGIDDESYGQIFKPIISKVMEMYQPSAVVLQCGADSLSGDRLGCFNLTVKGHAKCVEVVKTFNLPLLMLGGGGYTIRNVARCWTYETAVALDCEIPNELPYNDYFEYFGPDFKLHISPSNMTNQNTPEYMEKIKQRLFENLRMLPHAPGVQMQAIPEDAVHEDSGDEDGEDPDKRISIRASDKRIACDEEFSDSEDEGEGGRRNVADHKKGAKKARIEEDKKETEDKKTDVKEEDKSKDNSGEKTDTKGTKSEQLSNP
Description: as §1

human recombinant HDAC6 = molecular target: T3, human recombinant HDAC6 (Homo sapiens, UniProt Q9UBN7); experiment: HDAC activity assay (fluorogenic HDAC assay kit), HDAC6; assay type: biochemical; conditions: for IC50: human recombinant HDAC6, 37 °C, 30 min; for Selectivity index HDAC6/1: ratio of IC50 HDAC1 to IC50 HDAC6; for Selectivity index HDAC6/2: ratio of IC50 HDAC2 to IC50 HDAC6;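 as to all read-outs here: underlying HDAC activity read as fluorescence, excitation 350 nm and emission 440 nm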
T3 construct: purchased BPS Bioscience, CA
T3 sequence (Q9UBN7 1-1215): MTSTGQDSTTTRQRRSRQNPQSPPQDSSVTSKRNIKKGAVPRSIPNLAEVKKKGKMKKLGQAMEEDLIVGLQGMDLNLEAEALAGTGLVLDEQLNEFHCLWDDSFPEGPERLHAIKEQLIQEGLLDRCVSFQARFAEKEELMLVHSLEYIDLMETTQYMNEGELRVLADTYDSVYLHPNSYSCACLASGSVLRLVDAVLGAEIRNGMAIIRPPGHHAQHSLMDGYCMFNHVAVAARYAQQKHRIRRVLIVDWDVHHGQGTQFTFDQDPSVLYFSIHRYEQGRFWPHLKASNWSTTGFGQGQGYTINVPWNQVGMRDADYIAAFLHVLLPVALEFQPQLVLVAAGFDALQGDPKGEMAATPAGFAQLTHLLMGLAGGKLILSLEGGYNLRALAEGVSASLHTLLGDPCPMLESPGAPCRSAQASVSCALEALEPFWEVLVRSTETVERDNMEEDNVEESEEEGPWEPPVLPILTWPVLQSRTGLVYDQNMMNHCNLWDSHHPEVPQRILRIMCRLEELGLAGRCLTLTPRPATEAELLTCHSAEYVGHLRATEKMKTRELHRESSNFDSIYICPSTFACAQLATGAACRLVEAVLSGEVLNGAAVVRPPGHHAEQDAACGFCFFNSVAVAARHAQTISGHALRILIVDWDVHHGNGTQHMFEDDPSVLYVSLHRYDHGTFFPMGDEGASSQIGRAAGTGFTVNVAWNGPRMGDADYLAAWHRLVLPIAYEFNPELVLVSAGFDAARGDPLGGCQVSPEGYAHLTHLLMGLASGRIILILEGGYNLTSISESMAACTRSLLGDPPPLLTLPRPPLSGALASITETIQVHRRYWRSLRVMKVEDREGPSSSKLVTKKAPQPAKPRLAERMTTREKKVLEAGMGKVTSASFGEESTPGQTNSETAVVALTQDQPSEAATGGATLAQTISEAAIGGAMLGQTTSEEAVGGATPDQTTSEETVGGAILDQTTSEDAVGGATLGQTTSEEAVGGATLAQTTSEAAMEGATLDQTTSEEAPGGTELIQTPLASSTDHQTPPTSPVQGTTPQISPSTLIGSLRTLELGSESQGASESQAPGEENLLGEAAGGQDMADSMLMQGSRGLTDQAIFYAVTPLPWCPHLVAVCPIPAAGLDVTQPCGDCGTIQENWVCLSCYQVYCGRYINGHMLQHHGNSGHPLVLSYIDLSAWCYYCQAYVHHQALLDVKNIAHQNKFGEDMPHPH
Description: as §1

[1] = test system: human lung adenocarcinoma cells A549; experiment: Antiproliferative activity, CCK-8 assay, A549; assay type: cell-based; conditions: CCK-8, 72 hours, mean ± SD
Description: (§2) Antitumor activities in vitro of synthetic compounds were measured using CCK-8 Assay Kit (BPS Bioscience, CA) according to the manufacturer's protocol. […] Control cells were treated with serum free medium. Then CCK-8 solution was added to each well to determine cell viability. The IC50 values were calculated according to the dose-dependent curves (Origin software). IC50 values were determined using nonlinear regression analysis.

liver cancer cells HepG2 = experiment: Antiproliferative activity, CCK-8 assay, HepG2; assay type: cell-based; conditions: Homo sapiens, CCK-8, 72 hours, mean ± SD
Description: as §2

[2] = test system: breast cancer cells MCF-7; experiment: Antiproliferative activity, CCK-8 assay, MCF-7; assay type: cell-based; conditions: Homo sapiens, MCF7; CCK-8, 72 hours; mean ± SD
Description: as §2

[3] = test system: prostate cancer cells PC-3; experiment: Antiproliferative activity, CCK-8 assay, PC-3; assay type: cell-based; conditions: Homo sapiens; CCK-8, 72 hours; mean ± SD
Description: as §2

[4] = test system: human cervical carcinoma cells HeLa; experiment: Antiproliferative activity, CCK-8 assay, HeLa; assay type: cell-based; conditions: read-out: IC50 HeLa
Description: Antitumor activities in vitro of synthetic compounds were measured using CCK-8 Assay Kit (BPS Bioscience, CA) according to the manufacturer's protocol. Cells were plated into 96-well plates with appropriate test compounds for 72 hours. Control cells were treated with serum free medium. Then CCK-8 solution was added to each well to determine cell viability. The IC50 values were calculated according to the dose-dependent curves (Origin software). IC50 values were determined using nonlinear regression analysis.

healthy MCF-10A cells = experiment: Toxicity to healthy cells, CCK-8 assay, MCF-10A; assay type: cell-based; conditions: for IC50: Homo sapiens, MCF-10A, healthy cells, CCK-8, 72 hours, >100 = not determinable up to highest concentrations tested
Description: as §2

tubulin = experiment: Tubulin polymerization assay; assay type: biochemical; conditions: in words
tubulin, sequence (P02550 whole entry): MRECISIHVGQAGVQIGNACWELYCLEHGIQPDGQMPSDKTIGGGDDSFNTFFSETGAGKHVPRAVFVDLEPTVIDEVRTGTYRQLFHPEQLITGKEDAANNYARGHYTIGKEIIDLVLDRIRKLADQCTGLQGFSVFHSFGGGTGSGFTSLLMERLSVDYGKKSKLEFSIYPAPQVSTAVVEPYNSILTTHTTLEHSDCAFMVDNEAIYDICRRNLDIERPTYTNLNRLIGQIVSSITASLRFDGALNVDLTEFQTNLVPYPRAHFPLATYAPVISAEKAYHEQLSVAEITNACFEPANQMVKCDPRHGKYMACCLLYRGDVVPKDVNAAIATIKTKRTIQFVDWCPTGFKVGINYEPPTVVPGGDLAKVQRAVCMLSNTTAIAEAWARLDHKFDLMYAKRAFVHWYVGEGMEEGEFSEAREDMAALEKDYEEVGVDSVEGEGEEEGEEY
tubulin, sequence (P02554 whole entry, further chain): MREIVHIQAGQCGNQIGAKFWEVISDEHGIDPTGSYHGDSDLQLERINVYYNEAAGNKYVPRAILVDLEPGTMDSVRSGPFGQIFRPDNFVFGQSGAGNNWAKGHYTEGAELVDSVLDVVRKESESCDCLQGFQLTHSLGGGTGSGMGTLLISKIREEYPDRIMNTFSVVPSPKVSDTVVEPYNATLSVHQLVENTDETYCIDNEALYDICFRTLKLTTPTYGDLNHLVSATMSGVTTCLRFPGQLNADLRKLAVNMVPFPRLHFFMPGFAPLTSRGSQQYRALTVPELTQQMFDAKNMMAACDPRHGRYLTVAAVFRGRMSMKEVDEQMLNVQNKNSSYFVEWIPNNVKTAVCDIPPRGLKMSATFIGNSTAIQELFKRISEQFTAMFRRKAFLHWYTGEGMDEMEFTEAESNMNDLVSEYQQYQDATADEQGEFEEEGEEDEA
Description: Tubulin polymerization assay was performed using a fluorescence-based tubulin polymerization assay Kit (BK011, Cytoskeleton, Inc.) according to the manufacturer's protocol. […] After addition of polymerization buffer and 0.4 mM GTP, the reaction mixtures were transferred to 0 °C cuvettes in a recording spectrophotometer. […] Data from each well was normalized relative to initial readings,[43] and plots of ΔODmax (final−initial values) against compound concentration, expressed relative to vehicle control (DMSO only), were used to calculate IC50 values.[44] IC50 values were determined using nonlinear regression analysis.

[5] = amide group of 9c replaced with ester group

SMILES | IC50 (human recombinant HDAC1) [µM] | IC50 (human recombinant HDAC2) [µM] | IC50 (human recombinant HDAC6) [µM] | Selectivity index HDAC6/1 (human recombinant HDAC6) | Selectivity index HDAC6/2 (human recombinant HDAC6) | IC50 [1] [µM] | IC50 (liver cancer cells HepG2) [µM] | IC50 [2] [µM] | IC50 [3] [µM] | IC50 ([4]; CCK-8, 72 hours, mean ± SD) [µM] | IC50 (healthy MCF-10A cells) [µM] | fold reduced potency anti-HDAC1 relative to 9c (human recombinant HDAC1; [5]) | fold reduced potency anti-HDAC2 relative to 9c (human recombinant HDAC2; [5]) | fold reduced potency anti-HDAC6 relative to 9c (human recombinant HDAC6; [5]) | tubulin polymerization inhibition compared with reference compound (tubulin) | IC50 ([4]; 72 h) [µM] | toxicity to healthy MCF-10A cells (healthy MCF-10A cells; in words) | toxicity to healthy VERO cells (healthy MCF-10A cells; in words, conclusions)
C[C@H]1COc2c(N3CCN(C)CC3)c(F)cc3c(=O)c(C(=O)OCc4cn(CCCCCC(=O)NO)nn4)cn1c23 [Compound 8a, (S)-(1-(6-(hydroxyamino)-6-oxohexyl)-1H-1,2,3-triazol-4-yl)methyl-9-fluoro-3-methyl-10-(4-methylpiperazin-1-yl)-7-oxo-3,7-dihydro-2H-[1,4]oxazino[2,3,4-ij]quinoline-6-carboxylate] | 0.075 ± 0.031 | 0.134 ± 0.049 | 0.043 ± 0.053 | 1.7 | 3.1 | 8.9 ± 0.72 | 9.8 ± 0.87 | 3.5 ± 0.51 | 12.8 ± 1.42 | 7.7 ± 0.64 | > 100 |  |  |  |  |  |  | 
C[C@H]1COc2c(N3CCN(C)CC3)c(F)cc3c(=O)c(C(=O)OCc4cn(CCCCCCCC(=O)NO)nn4)cn1c23 [Compound 8c, (S)-(1-(8-(hydroxyamino)-8-oxooctyl)-1H-1,2,3-triazol-4-yl)methyl-9-fluoro-3-methyl-10-(4-methylpiperazin-1-yl)-7-oxo-3,7-dihydro-2H-[1,4]oxazino[2,3,4-ij]quinoline-6-carboxylate] | 0.104 ± 0.053 | 0.065 ± 0.016 | 0.052 ± 0.026 | 2.0 | 1.3 | 7.4 ± 0.44 | 5.7 ± 0.49 | 2.3 ± 0.27 | 10.4 ± 1.13 | 6.8 ± 0.56 | > 100 | at least 2 fold | at least 2 fold | at least 2 fold |  |  |  | 
C[C@H]1COc2c(N3CCN(C)CC3)c(F)cc3c(=O)c(C(=O)NCc4cn(CCCCCC(=O)NO)nn4)cn1c23 [Compound 9a, (S)-9-Fluoro-N-((1-(6-(hydroxyamino)-6-oxohexyl)-1H-1,2,3-triazol-4-yl)methyl)-3-methyl-10-(4-methylpiperazin-1-yl)-7-oxo-3,7-dihydro-2H-[1,4]oxazino[2,3,4-ij]quinoline-6-carboxamide] | 0.073 ± 0.045 |  | 0.049 ± 0.023 | 1.5 | 1.7 | 5.6 ± 0.59 | 6.6 ± 0.78 | 1.1 ± 0.26 | 9.6 ± 1.05 | 5.2 ± 0.82 | > 100 |  |  |  | equipotent to reference compound CA-4 |  |  | 
C[C@H]1COc2c(N3CCN(C)CC3)c(F)cc3c(=O)c(C(=O)NCc4cn(CCCCCCCC(=O)NO)nn4)cn1c23 [Compound 9c, (S)-9-Fluoro-N-((1-(8-(hydroxyamino)-8-oxooctyl)-1H-1,2,3-triazol-4-yl)methyl)-3-methyl-10-(4-methylpiperazin-1-yl)-7-oxo-3,7-dihydro-2H-[1,4]oxazino[2,3,4-ij]quinoline-6-carboxamide] | 0.038 ± 0.014 | 0.076 ± 0.022 | 0.041 ± 0.025 | 0.9 | 1.9 | 4.2 ± 0.38 | 3.6 ± 0.55 | 1.1 ± 0.23 | 8.7 ± 0.62 | 3.5 ± 0.24 | > 100 |  |  |  |  |  |  | 
O=C(CCCCCCC(=O)Nc1ccccc1)NO [SAHA, vorinostat, reference compound] |  |  |  |  |  |  |  |  |  |  |  |  |  |  |  | 2.9 ± 0.18 | considerable toxicity | some extent inherent toxicity
